In brackets after ≈: the same amount, converted by molar mass.
Tests used:
FAS = target: T1, FAS (Homo sapiens, UniProt P49327); assay: FAS (IC50) marked (SB); assay type: biochemical; conditions: value marked (SB), not defined
T1 construct: Human FAS was purified from cultured ZR-75-1 human breast cancer cells; endogenous in cells

[1] = system: fatty acid synthesis pathway activity in MCF-7 human breast cancer cells; assay: [14C]acetate incorporation into total lipids; assay type: cell-based; conditions: Homo sapiens, MCF7; MCF-7 cells, [14C]acetate into lipids
Procedure: This assay measures the incorporation of [^14C]acetate into total lipids and is a measure of fatty acid synthesis pathway activity in vitro. It is utilized to measure inhibition of fatty acid synthesis in vitro.
MCF-7 human breast cancer cells cultured as above, are plated at 5×10^4 cells per well in 24-well plates. Following overnight incubation, the compounds to be tested, solubilized in DMSO, are added at 5, 10, and 20 μg/ml in triplicate, with lower concentrations tested if necessary. DMSO is added to triplicate wells for a vehicle control. C75 is run at 5 and 10 μg/ml in triplicate as positive controls. After 4 hours of incubation, 0.25 μCi of [^14C]acetate (10 μl volume) is added to each well.
After 2 hours of additional incubation, medium is aspirated from the wells and 800 μl of chloroform:methanol (2:1) and 700 μl of 4 mM MgCl2 is added to each well. Contents of each well are transferred to 1.5 Eppendorf tubes, and spun at full-speed for 2 minutes in a high-speed Eppendorf Microcentrifuge 5415D. After removal of the aqueous (upper) layer, an additional 700 μl of chloroform:methanol (2:1) and 500 μl of 4 mM MgCl2 are added to each tube and then centrifuged for 1 minutes as above. The aqueous layer is removed with a Pasteur pipette and discarded. An additional 400 μl of chloroform:methanol (2:1) and 200 μl of 4 mM MgCl2 are added to each tube, then centrifuged and aqueous layer is discarded. The lower (organic) phase is transferred into a scintillation vial and dried at 40° C. under N2 gas. Once dried, 3 ml of scintillant (APB #NBC5104) is added and vials are counted for ^14C. The Beckman Scintillation counter calculates the average cpm values for triplicates.
The IC50 for the compounds is defined as the concentration of drug leading to a 50% reduction in [^14C]acetate incorporation into lipids compared to controls. This is determined by plotting the average cpm for each inhibitor concentration tested, performing linear regression and computing the best-fit line, r^2 values, and 95% confidence intervals. The average cpm values are computed by the Beckman scintillation counter (Model LS6500) for each compound concentration. Computation of linear regression, best-fit line, r^2, and 95% confidence intervals are calculated using Prism Version 3.0 (Graph Pad Software).

[2] = system: MCF-7 human breast cancer cells; assay: XTT cytotoxicity assay (M / MCF7); assay type: cell-based; conditions: MCF-7 cells, 72 hours
Procedure: The XTT assay is a non-radioactive alternative for the [^51Cr] release cytotoxicity assay. XTT is a tetrazolium salt that is reduced to a formazan dye only by metabolically active, viable cells. The reduction of XTT is measured spectrophotometrically as OD490-OD650. To measure the cytotoxicity of specific compounds against cancer cells, 9×10^3 MCF-7 human breast cancer cells, obtained from the American Type Culture Collection are plated per well in 96 well plates in DMEM medium with 10% fetal bovine serum, insulin, penicillin, and streptomycin. Following overnight culture at 37° C. and 5% CO2, the compounds to be tested, dissolved in DMSO, are added to the wells in 1 μl volume at the following concentrations: 80, 40, 20, 10, 5, 2.5, 1.25, and 0.625 μg/ml in triplicate. Additional concentrations are tested if required. 1 μl of DMSO is added to triplicate wells are the vehicle control. C75 is run at 40, 20, […], and 5 μg/ml in triplicate as positive controls. After 72 hours of incubation, cells are incubated for 4 hours with the XTT reagent as per manufacturer's instructions (Cell Proliferation Kit 11 (XTT) Roche). Plates are read at OD490 and OD650 on a Molecular Devices SpectraMax Plus Spectrophotometer. Three wells containing the XTT reagent without cells serve as the plate blank. XTT data are reported as OD490-OD650. Averages and standard error of the mean are computed using SOFTmax Pro software ([…]). The IC50 for the compounds is defined as the concentration of drug leading to a 50% reduction in OD490-OD650 compared to controls. The OD490-OD650 are computed by the SOFTmax PRO software (Molecular Devices) for each compound concentration. IC50 is calculated by linear regression, plotting the FAS activity as percent of control versus drug concentrations. Linear regression, best-fit line, r^2, and 95% confidence intervals are determined using Prism Version 3.0 (Graph Pad Software).

OV = assay: XTT cytotoxicity assay (OV); assay type: cell-based; conditions: (OV) cells
Procedure: The XTT assay is a non-radioactive alternative for the [^51Cr] release cytotoxicity assay. XTT is a tetrazolium salt that is reduced to a formazan dye only by metabolically active, viable cells. The reduction of XTT is measured spectrophotometrically as OD490-OD650. After 72 hours of incubation, cells are incubated for 4 hours with the XTT reagent as per manufacturer's instructions (Cell Proliferation Kit 11 (XTT) Roche). Plates are read at OD490 and OD650 on a Molecular Devices SpectraMax Plus Spectrophotometer. Three wells containing the XTT reagent without cells serve as the plate blank. XTT data are reported as OD490-OD650. Averages and standard error of the mean are computed using SOFTmax Pro software (Molecular Dynamics). The IC50 for the compounds is defined as the concentration of drug leading to a 50% reduction in OD490-OD650 compared to controls. The OD490-OD650 are computed by the SOFTmax PRO software (Molecular Devices) for each compound concentration. IC50 is calculated by linear regression, plotting the FAS activity as percent of control versus drug concentrations. Linear regression, best-fit line, r^2, and 95% confidence intervals are determined using Prism Version 3.0 (Graph Pad Software).

[3] = system: MCF-7 human breast cancer cells; assay: Crystal violet cell growth assay; assay type: cell-based; conditions: MCF7, MCF-7 cells, 72 hours, read-out: Cr. Violet (IC50)
Procedure: The crystal violet assay measures cell growth but not cytotoxicity. This assay employs crystal violet staining of fixed cells in 96-well plates with subsequent solubilization and measurement of OD490 on a spectrophotometer. The OD490 corresponds to cell growth per unit time measured. Cells are treated with the compounds of interest or vehicle controls and IC50 for each compound is computed.
To measure the cytotoxicity of specific compounds against cancer cells, 5×10^4 MCF-7 human breast cancer cells, obtained from the American Type Culture Collection are plated per well in 24 well plates in DMEM medium with 10% fetal bovine serum, penicillin, and streptomycin. Following overnight culture at 37° C. and 5% CO2, the compounds to be tested, dissolved in DMSO, are added to the wells in 1 μl volume at the following concentrations: 50, 40, 30, 20, and 10 μg/ml in triplicate. Additional concentrations are tested if required. 1 μl of DMSO is added to triplicate wells are the vehicle control. C75 is run at 10, and 5 μg/ml in triplicate as positive controls.
After 72 hours of incubation, cells are stained with 0.5 ml of Crystal Violet stain (0.5% in 25% methanol) in each well. After 10 minutes, wells are rinsed, air dried, and then solubilized with 0.5 ml 10% sodium dodecylsulfate with shaking for 2 hours. Following transfer of 100 μl from each well to a 96-well plate, plates are read at OD490 on a Molecular Devices SpectraMax Plus Spectrophotometer Average OD490 values are computed using SOFTmax Pro Software (Molecular Devices) and IC50 values are determined by linear regression analysis using Prism version 3.02 (Graph Pad Software, San Diego).

Weight loss screen = assay type: in vivo, Balb/C mice; conditions: 60 mg/kg intraperitoneally, day 2
Procedure: Balb/C mice (Jackson Labs) are utilized for the initial weight loss screening. Animals are housed in temperature and 12 hour day/night cycle rooms and fed mouse chow and water ad lib. Three mice are utilized for each compound tested with vehicle controls in triplicate per experiment. For the experiments, mice are housed separately for each compound tested three mice to a cage. Compounds are diluted in DMSO at 10 mg/ml and mice are injected intraperitoneally with 60 mg/kg in approximately 100 μl of DMSO or with vehicle alone. Mice are observed and weighed daily; average weights and standard errors are computed with Excel (Microsoft). The experiment continues until treated animals reach their pretreatment weights. Select compounds are tested in animals housed in metabolic cages. Dosing of animals are identical to the screening experiments with three animals to a single metabolic cage. Animal weights, water and food consumption, and urine and feces production are measured daily.

[4] = target: rat liver acyl-CoA synthetase; conditions: rat liver enzyme; read-out: 50% inhibition of rat liver acyl-CoA synthetase; cited from earlier work
Raji cells = conditions: cited from earlier work
HIV protease = HIV protease (Human immunodeficiency virus type 1 group M subtype B, UniProt P04585); conditions: cited from earlier work
[5] = system: Mycobacterium tuberculosis; conditions: in vitro; cited from earlier work

T1 sequence (P49327 whole entry): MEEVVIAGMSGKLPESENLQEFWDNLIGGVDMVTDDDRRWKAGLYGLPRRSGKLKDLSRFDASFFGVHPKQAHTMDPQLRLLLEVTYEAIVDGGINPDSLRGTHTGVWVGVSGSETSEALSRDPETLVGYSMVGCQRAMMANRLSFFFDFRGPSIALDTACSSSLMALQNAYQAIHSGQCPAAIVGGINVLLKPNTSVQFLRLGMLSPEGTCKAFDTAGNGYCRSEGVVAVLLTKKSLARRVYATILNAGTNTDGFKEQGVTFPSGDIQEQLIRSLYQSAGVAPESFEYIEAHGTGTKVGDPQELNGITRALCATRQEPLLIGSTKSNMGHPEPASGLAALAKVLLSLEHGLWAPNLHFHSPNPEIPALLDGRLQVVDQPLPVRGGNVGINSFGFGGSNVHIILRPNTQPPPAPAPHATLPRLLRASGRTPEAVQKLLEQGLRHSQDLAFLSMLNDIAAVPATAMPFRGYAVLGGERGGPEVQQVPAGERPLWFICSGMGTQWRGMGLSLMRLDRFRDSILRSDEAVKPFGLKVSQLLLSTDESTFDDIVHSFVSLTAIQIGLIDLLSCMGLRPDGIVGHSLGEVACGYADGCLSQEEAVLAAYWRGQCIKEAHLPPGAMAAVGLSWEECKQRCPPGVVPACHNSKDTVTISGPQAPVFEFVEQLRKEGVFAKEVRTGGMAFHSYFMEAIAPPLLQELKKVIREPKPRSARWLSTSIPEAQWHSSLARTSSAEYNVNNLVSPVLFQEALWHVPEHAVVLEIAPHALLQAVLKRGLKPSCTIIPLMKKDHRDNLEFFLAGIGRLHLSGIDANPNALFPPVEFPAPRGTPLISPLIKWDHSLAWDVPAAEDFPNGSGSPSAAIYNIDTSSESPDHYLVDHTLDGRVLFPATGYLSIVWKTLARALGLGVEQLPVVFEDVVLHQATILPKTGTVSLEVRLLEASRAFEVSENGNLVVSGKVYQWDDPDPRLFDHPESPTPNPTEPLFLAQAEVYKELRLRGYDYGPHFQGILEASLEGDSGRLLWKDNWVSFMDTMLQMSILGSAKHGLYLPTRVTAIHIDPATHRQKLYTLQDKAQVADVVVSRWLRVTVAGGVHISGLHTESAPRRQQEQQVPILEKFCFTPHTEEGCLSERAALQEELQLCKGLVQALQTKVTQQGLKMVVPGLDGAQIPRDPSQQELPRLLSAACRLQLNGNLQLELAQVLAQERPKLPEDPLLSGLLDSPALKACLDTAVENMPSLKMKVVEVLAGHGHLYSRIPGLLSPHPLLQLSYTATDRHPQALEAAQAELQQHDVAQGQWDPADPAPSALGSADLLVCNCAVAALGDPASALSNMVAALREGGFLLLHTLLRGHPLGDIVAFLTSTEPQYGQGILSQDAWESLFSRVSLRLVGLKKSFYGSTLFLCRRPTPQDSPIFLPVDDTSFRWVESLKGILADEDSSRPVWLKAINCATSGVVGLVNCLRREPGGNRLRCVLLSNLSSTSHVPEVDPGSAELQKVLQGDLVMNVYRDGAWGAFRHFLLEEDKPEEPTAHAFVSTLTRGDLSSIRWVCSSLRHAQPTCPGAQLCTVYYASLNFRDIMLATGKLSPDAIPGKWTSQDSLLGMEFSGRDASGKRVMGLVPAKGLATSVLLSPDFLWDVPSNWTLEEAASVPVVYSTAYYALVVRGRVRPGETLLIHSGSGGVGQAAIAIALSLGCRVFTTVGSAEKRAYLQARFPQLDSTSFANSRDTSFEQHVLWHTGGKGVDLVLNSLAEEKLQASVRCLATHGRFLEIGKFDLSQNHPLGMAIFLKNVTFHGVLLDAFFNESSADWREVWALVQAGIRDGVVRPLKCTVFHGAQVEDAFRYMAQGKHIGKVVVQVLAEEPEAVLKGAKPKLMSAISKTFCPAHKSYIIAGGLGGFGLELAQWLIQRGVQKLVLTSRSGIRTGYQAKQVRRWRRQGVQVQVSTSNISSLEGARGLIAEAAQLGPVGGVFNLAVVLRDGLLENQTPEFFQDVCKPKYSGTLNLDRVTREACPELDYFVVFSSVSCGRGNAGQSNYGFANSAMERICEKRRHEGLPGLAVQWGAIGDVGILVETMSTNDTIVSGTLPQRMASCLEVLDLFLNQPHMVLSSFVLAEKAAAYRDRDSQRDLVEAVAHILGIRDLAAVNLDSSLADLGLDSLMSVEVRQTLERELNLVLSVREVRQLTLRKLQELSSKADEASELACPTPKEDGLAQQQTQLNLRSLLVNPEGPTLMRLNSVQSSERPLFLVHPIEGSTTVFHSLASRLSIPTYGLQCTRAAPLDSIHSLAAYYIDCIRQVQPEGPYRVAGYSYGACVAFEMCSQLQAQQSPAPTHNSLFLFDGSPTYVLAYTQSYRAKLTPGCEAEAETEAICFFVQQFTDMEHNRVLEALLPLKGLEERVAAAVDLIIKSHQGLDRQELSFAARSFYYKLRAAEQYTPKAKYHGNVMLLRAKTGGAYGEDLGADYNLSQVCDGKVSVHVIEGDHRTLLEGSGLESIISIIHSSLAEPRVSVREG

Compound: CCCCCCCCNC(=O)c1cc(OCC(=O)OC)cs1
- FAS (IC50) (SB) (FAS): Neg (SB)
- IC50 [1]: 15.8 µg/mL (≈ 48.3 µM)
- IC50 [2]: 41.1 ± 2.6 µg/mL (≈ 126 µM)
- IC50 (OV): 55 µg/mL (≈ 168 µM)
- IC50 [3]: 43.4 µg/mL (≈ 133 µM)

Compound: O=C(NNC(=O)c1cc(O)cs1)c1ccco1
- IC50 (FAS): 135 µM
- IC50 [2]: > 80 µg/mL
- IC50 (OV): > 80 µg/mL
- Weight Loss (Weight loss screen): 60 mg/kg: 1.5% (day 2)

Compound: O=C(NNc1ccc(Cl)cc1)c1cc(O)cs1
- IC50 (FAS): 510 µM
- IC50 [2]: 56.9 µg/mL (≈ 212 µM)
- IC50 (OV): 30 µg/mL (≈ 112 µM)

Compound: CCCC=CCC=CC=CC=NN=NO [Triacsin C, 1-hydroxy-3-(E, E, E-2′,4′,7′-undecatrienylidine) triazene]
- IC50 [4]: 8.7 µM
- concentration causing growth inhibition in Raji cells (Raji cells): 1.0 µM

Compound: C/C=C/C/C=C/CCC(=O)[C@H]1O[C@H]1C(N)=O [cerulenin, (2S,3R)-2,3-epoxy-4-oxo-7,10 dodecadienoyl amide]
- concentration for inhibition of viral HIV protease (HIV protease): 5 mg/mL
- activity against Mycobacterium tuberculosis [5]: no activity

Reference: patent US20100029752A1, “NOVEL COMPOUNDS, PHARMACEUTICAL COMPOSITIONS CONTAINING SAME, AND METHODS OF USE FOR SAME” (priority 2005, published 2010)
